According to patent US12474342B2, “Methods for treating cancer and the use of biomarkers as a predictor of clinical sensitivity to therapies” (CELGENE CORPORATION, priority 2016, dated 2025):
Where two headings read alike, the source gives them in different places.

What was measured:
GSPT1 [1] = target: T1, GSPT1 (Homo sapiens, UniProt P15170+Q96SW2); test: GSPT1 protein reduction, western analysis, AML patient PBMCs; format: cell-based; set-up: reduction in GSPT1 protein level was evaluated in human normal PBMCs; endogenous in cells; host or cells: primary PBMCs from normal donors (ID 4328, 4379) and AML patients (ID 11SH, 09P6); conditions: PBMC sample 11SH (AML)
ML-2 cells = test: Apoptosis (caspase 3/7 activation), ML-2; format: cell-based, human; conditions: for EC50: Homo sapiens, read-out: Compound D-induced Apoptosis EC50
GSPT1 [2] = target: T1, GSPT1; test: GSPT1 protein reduction, western analysis, normal PBMCs
Protocol: PBMC were treated with 1 nM, 10 nM, 100 nM, or 1000 nM of Compound D or Compound E for 20 hours.

GSPT1 [3] = target: T1, GSPT1; test: GSPT1 protein reduction, western analysis, HL-60; format: cell-based; set-up: reduction in GSPT1 protein level was evaluated in human normal PBMCs; endogenous in cells; host or cells: primary PBMCs from normal donors (ID 4328, 4379) and AML patients (ID 11SH, 09P6)
Protocol: FIG. 30C [HL-60]) and 48-hour (FIG. 30B [KG-1]; FIG. 30D [HL-60]) time points. […] The time course of the reduction in GSPT1 by Compound D also was studied for up to 48 hours. The progressive degradation of GSPT1 over the course of 1 to 20 hours was evident in the presence of all concentrations of Compound D studied from 3 to 300 nM in HNT-34, HL-60, and ML-2 cells, with little GSPT1 remaining by 20 hours at 100 or 300 nM Compound D in HNT-34 or HL-60 cells (FIG. 34 and FIG. 35C). Time-dependent reduction in GSPT1 was also observed in KG-1 and OCI-AML2 cells at 3 to 1000 nM Compound D, with little GSPT1 remaining in KG-1 cells at 100 to 300 nM at 24 hours or in OCI-AML2 cells at 300 and 1000 nM at 24 hours (FIG. 35D). Loss of GSPT1 occurred more slowly in Kasumi-1, AML-193, and […] cells. […] A positive association (r^2=0.50; […]

ATF3 and DDIT3 mRNA = ATF3 and DDIT3 mRNA induction, healthy PBMCs; format: cell-based, human; conditions: by 8 hours
Description: The kinetics of induction of mRNA for UPR factors ATF3 and DDIT3 in HNT-34 cells also strongly differed from that in PBMCs. […] This is also consistent with the reduced cytotoxicity observed for Compound D in normal adult lymphocytes as compared with tumor cells (data not shown).

KG-1 AML cell cultures = test: Induction of apoptosis (Annexin V assay), KG-1; format: cell-based; conditions: Homo sapiens, read-out: Induction of Apoptosis by Compound D (Annexin V assay) EC50
MV-4-11 cells = test: Anti-proliferation 72-hour CTG assay, MV-4-11; format: cell-based; conditions: Homo sapiens, MV4-11; MV-4-11, 72-hour CTG assay; read-out: IC50 of the anti-proliferative effect
Protocol: (§1) A plethora of AML cell lines were treated with serial dilutions of Compound D. IC50 value of the anti-proliferation effect of Compound D (as determined in 72-hour CTG assays) in each cell line is summarized in Table 1.

HL-60 cells [4] = test: Anti-proliferation 72-hour CTG assay, HL-60; format: cell-based; conditions: Homo sapiens; HL-60, 72-hour CTG assay; read-out: IC50 of the anti-proliferative effect
Protocol: as §1

HL-60 cells [5] = test: Apoptosis (caspase 3/7 activation), HL-60; format: cell-based, human; conditions: for EC50: Homo sapiens, read-out: Compound D-induced Apoptosis EC50
HNT-34 cells = test: Anti-proliferation 72-hour CTG assay, HNT-34; format: cell-based; conditions: Homo sapiens
Protocol: as §1

T1 sequence (P15170 1-637 isoform P15170-3): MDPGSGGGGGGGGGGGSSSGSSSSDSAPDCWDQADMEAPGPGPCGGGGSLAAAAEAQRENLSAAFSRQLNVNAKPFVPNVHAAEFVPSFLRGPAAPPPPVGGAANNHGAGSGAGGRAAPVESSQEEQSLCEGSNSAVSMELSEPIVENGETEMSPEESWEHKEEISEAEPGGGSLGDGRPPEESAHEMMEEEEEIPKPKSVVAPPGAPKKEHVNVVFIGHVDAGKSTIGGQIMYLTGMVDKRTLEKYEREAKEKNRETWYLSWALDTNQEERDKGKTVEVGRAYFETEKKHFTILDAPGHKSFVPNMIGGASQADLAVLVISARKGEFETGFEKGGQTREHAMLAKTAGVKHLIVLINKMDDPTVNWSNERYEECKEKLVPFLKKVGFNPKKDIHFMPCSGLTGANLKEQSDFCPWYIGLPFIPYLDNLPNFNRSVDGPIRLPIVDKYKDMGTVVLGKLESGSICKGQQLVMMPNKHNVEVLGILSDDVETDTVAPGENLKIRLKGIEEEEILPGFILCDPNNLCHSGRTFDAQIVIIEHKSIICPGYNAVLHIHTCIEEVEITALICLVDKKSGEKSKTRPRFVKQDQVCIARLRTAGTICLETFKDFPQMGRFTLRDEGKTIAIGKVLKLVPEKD
T1 sequence (Q96SW2 whole entry): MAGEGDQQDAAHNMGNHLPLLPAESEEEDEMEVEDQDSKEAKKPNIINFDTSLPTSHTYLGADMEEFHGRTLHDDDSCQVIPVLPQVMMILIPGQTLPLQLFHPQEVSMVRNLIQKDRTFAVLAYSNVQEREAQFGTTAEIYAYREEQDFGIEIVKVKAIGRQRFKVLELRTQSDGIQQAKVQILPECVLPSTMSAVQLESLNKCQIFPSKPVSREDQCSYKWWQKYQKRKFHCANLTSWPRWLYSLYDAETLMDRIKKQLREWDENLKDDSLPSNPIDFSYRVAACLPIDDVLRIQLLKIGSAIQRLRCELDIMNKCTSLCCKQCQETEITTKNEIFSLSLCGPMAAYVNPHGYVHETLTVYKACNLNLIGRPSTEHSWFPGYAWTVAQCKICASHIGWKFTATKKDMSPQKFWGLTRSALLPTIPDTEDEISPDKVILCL
T1 sequence (Q16531 whole entry partner): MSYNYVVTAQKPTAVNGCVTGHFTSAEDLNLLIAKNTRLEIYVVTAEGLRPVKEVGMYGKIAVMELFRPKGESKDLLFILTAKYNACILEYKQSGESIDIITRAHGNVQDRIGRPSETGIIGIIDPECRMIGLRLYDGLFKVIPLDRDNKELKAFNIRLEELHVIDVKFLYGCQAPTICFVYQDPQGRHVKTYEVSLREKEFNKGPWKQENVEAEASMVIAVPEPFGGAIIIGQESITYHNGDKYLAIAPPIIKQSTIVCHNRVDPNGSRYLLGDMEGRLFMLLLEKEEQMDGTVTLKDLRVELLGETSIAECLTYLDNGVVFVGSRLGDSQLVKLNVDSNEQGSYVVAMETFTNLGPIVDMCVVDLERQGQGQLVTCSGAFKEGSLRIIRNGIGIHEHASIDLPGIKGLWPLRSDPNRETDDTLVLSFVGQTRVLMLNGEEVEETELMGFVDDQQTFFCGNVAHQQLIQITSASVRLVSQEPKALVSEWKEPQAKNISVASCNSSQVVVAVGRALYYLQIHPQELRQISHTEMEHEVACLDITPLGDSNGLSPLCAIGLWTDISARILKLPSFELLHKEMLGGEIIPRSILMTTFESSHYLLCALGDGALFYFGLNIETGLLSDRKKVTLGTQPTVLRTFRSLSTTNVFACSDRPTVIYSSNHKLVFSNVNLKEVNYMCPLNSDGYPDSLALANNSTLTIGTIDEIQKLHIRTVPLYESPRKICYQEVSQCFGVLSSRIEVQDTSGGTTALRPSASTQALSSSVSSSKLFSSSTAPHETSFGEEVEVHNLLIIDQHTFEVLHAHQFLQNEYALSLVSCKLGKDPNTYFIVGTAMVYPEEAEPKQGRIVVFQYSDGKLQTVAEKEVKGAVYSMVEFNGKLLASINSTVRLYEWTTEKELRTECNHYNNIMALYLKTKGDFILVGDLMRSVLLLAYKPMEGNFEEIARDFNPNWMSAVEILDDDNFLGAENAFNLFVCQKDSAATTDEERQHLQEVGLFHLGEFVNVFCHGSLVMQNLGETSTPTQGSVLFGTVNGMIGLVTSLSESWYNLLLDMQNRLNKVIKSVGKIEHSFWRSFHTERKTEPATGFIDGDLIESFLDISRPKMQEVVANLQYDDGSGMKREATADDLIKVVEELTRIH

Q: What does the source list for `O=C1CCC(N2Cc3cc(CNC(=O)C(F)(F)c4ccc(Cl)cc4)ccc3C2=O)C(=O)N1` (stereo not drawn) [Compound D, 2-(4-chlorophenyl)-N-((2-(2,6-dioxopiperidin-3-yl)-1-oxoisoindolin-5-yl)methyl)-2,2-difluoroacetamide]?
A: Reduction in GSPT1 Protein Level (GSPT1 [1]; 100 nM Compound D, 8 hours): 86%; Reduction in GSPT1 Protein Level (GSPT1 [1]; 100 nM Compound D, 22 hours): 100%; Reduction in GSPT1 Protein Level (GSPT1 [1]; 300 nM Compound D, 8 hours): 100%; Reduction in GSPT1 Protein Level (GSPT1 [1]; 300 nM Compound D, 22 hours): 100%; EC50 (ML-2 cells; ML-2, 24 hr): 62 nM; EC50 (ML-2 cells; ML-2, 48 hr): 31 nM; EC50 (ML-2 cells; ML-2, 72 hr): 21 nM; EC50 (ML-2 cells; ML-2, 96 hr): 25 nM; Average Percent Increase in Apoptosis at 123 nM Compound D, Apoptosis (12 hr) (ML-2 cells; ML-2, 123 nM, 12 hr): 2%; Average Percent Increase in Apoptosis at 123 nM Compound D, Apoptosis (24 hr) (ML-2 cells; ML-2, 123 nM, 24 hr): 17%; Average Percent Increase in Apoptosis at 123 nM Compound D, Apoptosis (48 hr) (ML-2 cells; ML-2, 123 nM, 48 hr): 51%; Reduction in GSPT1 Protein Level (GSPT1 [2]; PBMC sample 4328 (normal), 100 nM Compound D, 8 hours): 67%; Reduction in GSPT1 Protein Level (GSPT1 [2]; PBMC sample 4328 (normal), 100 nM Compound D, 22 hours): 92%; Reduction in GSPT1 Protein Level (GSPT1 [2]; PBMC sample 4328 (normal), 300 nM Compound D, 8 hours): 80%; Reduction in GSPT1 Protein Level (GSPT1 [2]; PBMC sample 4328 (normal), 300 nM Compound D, 22 hours): 98%; Reduction in GSPT1 Protein Level (GSPT1 [2]; PBMC sample 4379 (normal), 100 nM Compound D, 8 hours): 39%; Reduction in GSPT1 Protein Level (GSPT1 [2]; PBMC sample 4379 (normal), 100 nM Compound D, 22 hours): 73%; Reduction in GSPT1 Protein Level (GSPT1 [2]; PBMC sample 4379 (normal), 300 nM Compound D, 8 hours): 58%; Reduction in GSPT1 Protein Level (GSPT1 [2]; PBMC sample 4379 (normal), 300 nM Compound D, 22 hours): 83%; time at which GSPT1 degradation was evident (GSPT1 [2]; healthy PBMCs, 10 nM Compound D): 4 h; reduction of GSPT1 protein levels (GSPT1 [3]; HL-60, 100 nM Compound D, 4 hours): greater than 800; reduction of GSPT1 (GSPT1 [3]; HL-60, >30 nM Compound D, 8 hours): complete reduction; induction of ATF3 or DDIT3 mRNA (ATF3 and DDIT3 mRNA): no induction; EC50 (KG-1 AML cell cultures; KG-1, Compound F 0 μM): 20 nM; EC50 (KG-1 AML cell cultures; KG-1, Compound F 0.1 μM): 30 nM; EC50 (KG-1 AML cell cultures; KG-1, Compound F 1.0 μM): 100 nM; EC50 (KG-1 AML cell cultures; KG-1, Compound F 10 μM): 1000 nM; EC50 (KG-1 AML cell cultures; KG-1, Compound F 100 μM): 8000 nM; IC50 (MV-4-11 cells): 29 nM; IC50 (HL-60 cells [4]): 20 nM; average percent increase in apoptosis (HL-60 cells [5]; HL-60, 41 nM, 24 hour time-point): 9%; Average Percent Increase in Apoptosis at 123 nM Compound D, Apoptosis (12 hr) (HL-60 cells [5]; HL-60, 123 nM, 12 hr): 1%; Average Percent Increase in Apoptosis at 123 nM Compound D, Apoptosis (24 hr) (HL-60 cells [5]; HL-60, 123 nM, 24 hr): 19%; Average Percent Increase in Apoptosis at 123 nM Compound D, Apoptosis (48 hr) (HL-60 cells [5]; HL-60, 123 nM, 48 hr): 62%; EC50 (HL-60 cells [5]; HL-60, 24 hr): 73 nM; EC50 (HL-60 cells [5]; HL-60, 48 hr): 15 nM; EC50 (HL-60 cells [5]; HL-60, 72 hr): 8 nM; IC50 (HNT-34 cells; HNT-34, read-out: anti-proliferative activity IC50): 3 nM; IC50 (HNT-34 cells; HNT-34, 72-hour CTG assay, read-out: IC50 of the anti-proliferative effect): 3 nM
